What follows are molecules tested against T1, CDK2 (Homo sapiens, UniProt P24941) (assay: Phospho-RB measurement in OVCAR3 cells (HTRF phospho-RB S807/811)). Conditions: phosphorylation of RB protein at S807/811, HTRF, 24 h compound treatment, 0.3 to 10,000 nM, read-out: pRb (uM).
T1 construct: endogenous in cells; host or cells: OVCAR3 cells
Assay type: cell-based
Method: The ability of compounds of Formula (I) to inhibit CDK2 was determined in OVCAR3 cells. Phosphorylation of RB protein at S807/811 were measured using HTRF phospho-RB cellular kits (Cat #64RBS807PEG) from Cisbio.
On Day 1, OVCAR3 cells were seeded into 96-well tissue-culture treated plates at 20,000 cells/well in 200 μL and incubated overnight at 37° C. in CO2 atmosphere. On Day 2, the cells were treated with test compounds at concentrations from 0.3 to 10,000 nM using HP D300 digital dispenser. Twenty-four hours after compound treatment, cell culture media was removed by flicking the plate and tapping the plate against clean paper towel. Immediately 30 μL 1× lysis buffer was supplemented from the kit and the plate was incubated at room temperature on shaker for 30 min. After homogenization by pipetting up and down, 8 μL cell lysate from 96-well cell culture plate was transferred to 384-well small volume white detection plate. 2 μL premixed detection solution was added and the plate was covered with sealer. To prepare the detection solution, d2 conjugated-phospho-RB antibody and Eu-cryptate conjugated phosphor-RB antibody were diluted into detection buffer following manufacturer's instruction.
Detection plates were incubated for 4 h at room temperature and read on ClarioStar (BMG Labtech) in TR-FRET mode ([…]). The TR-FRET ratio (665 nM1/620 nM) was plotted against the compound concentration and normalized to DMSO controls. Half maximal inhibition concentration (IC50) values are calculated with a four-parameter logistic fit using GraphPad Prism (version 8; La Jolla, CA).

IC50 | SMILES
0.15 µM | O=S1(=O)CC2(CC(Nc3nccc(-c4sc(N5C6CCC5COC6)nc4-c4cccc(NS(=O)(=O)c5c(F)cccc5F)c4F)n3)C2)C1 [Example 2, N-(3-(2-(3-oxa-8-azabicyclo[3.2.1]octan-8-yl)-5-(2-((2,2-dioxido-2-thiaspiro[3.3]heptan-6-yl)amino)pyrimidin-4-yl)thiazol-4-yl)-2-fluorophenyl)-2,6-difluorobenzenesulfonamide]
0.12 µM | O=S1(=O)CC2(CC(Nc3nccc(-c4sc(C56CC(C5)C6)nc4-c4cccc(NS(=O)(=O)c5c(F)cccc5F)c4F)n3)C2)C1 [Example 3, N-(3-(2-(bicyclo[1.1.1]pentan-1-yl)-5-(2-((2,2-dioxido-2-thiaspiro[3.3]heptan-6-yl)amino)pyrimidin-4-yl)thiazol-4-yl)-2-fluorophenyl)-2,6-difluorobenzenesulfonamide]
0.13 µM | C[C@H]1COC[C@H](C)N1c1nc(-c2cccc(NS(=O)(=O)c3c(F)cccc3F)c2F)c(-c2ccnc(NC3CC4(C3)CS(=O)(=O)C4)n2)s1 [Example 4, N-(3-(2-((3S,5S)-3,5-dimethylmorpholino)-5-(2-((2,2-dioxido-2-thiaspiro[3.3]heptan-6-yl)amino)pyrimidin-4-yl)thiazol-4-yl)-2-fluorophenyl)-2,6-difluorobenzenesulfonamide]
0.08 µM | O=S1(=O)CC2(CC(Nc3nccc(-c4sc(C56CC7CC(CC(C7)C5)C6)nc4-c4cccc(NS(=O)(=O)c5c(F)cccc5F)c4F)n3)C2)C1 [Example 6, N-(3-(2-((3r,5r,7r)-adamantan-1-yl)-5-(2-((2,2-dioxido-2-thiaspiro[3.3]heptan-6-yl)amino)pyrimidin-4-yl)thiazol-4-yl)-2-fluorophenyl)-2,6-difluorobenzenesulfonamide]
0.39 µM | O=S1(=O)CC2(CC(Nc3nccc(-c4sc(C56CC(F)(C5)C6)nc4-c4cccc(NS(=O)(=O)c5c(F)cccc5F)c4F)n3)C2)C1 [Example 7, N-(3-(5-(2-((2,2-dioxido-2-thiaspiro[3.3]heptan-6-yl)amino)pyrimidin-4-yl)-2-(3-fluorobicyclo[1.1.1]pentan-1-yl)thiazol-4-yl)-2-fluorophenyl)-2,6-difluorobenzenesulfonamide]
0.1 µM | O=S1(=O)CC2(CC(Nc3nccc(-c4sc(C56CCC(CC5)C6)nc4-c4cccc(NS(=O)(=O)c5c(F)cccc5F)c4F)n3)C2)C1 [Example 9, N-(3-(2-(bicyclo[2.2.1]heptan-1-yl)-5-(2-((2,2-dioxido-2-thiaspiro[3.3]heptan-6-yl)amino)pyrimidin-4-yl)thiazol-4-yl)-2-fluorophenyl)-2,6-difluorobenzenesulfonamide]
0.055 µM | O=S1(=O)CC2(CC(Nc3nccc(-c4sc(C56CCC(CC5)CC6)nc4-c4cccc(NS(=O)(=O)c5c(F)cccc5F)c4F)n3)C2)C1 [Example 10, N-(3-(2-(bicyclo[2.2.2]octan-1-yl)-5-(2-((2,2-dioxido-2-thiaspiro[3.3]heptan-6-yl)amino)pyrimidin-4-yl)thiazol-4-yl)-2-fluorophenyl)-2,6-difluorobenzenesulfonamide]
0.068 µM | O=S1(=O)CC2(CC(Nc3nccc(-c4sc(N5C6CCC5CC(F)(F)C6)nc4-c4cccc(NS(=O)(=O)c5c(F)cccc5F)c4F)n3)C2)C1 [Example 12, N-(3-(2-(3,3-difluoro-8-azabicyclo[3.2.1]octan-8-yl)-5-(2-((2,2-dioxido-2-thiaspiro[3.3]heptan-6-yl)amino)pyrimidin-4-yl)thiazol-4-yl)-2-fluorophenyl)-2,6-difluorobenzenesulfonamide]
0.73 µM | CC(C)(C)OC(=O)N1CCC(C)(c2nc(-c3cccc(NS(=O)(=O)c4c(F)cccc4F)c3F)c(-c3ccnc(NC4CC5(C4)CS(=O)(=O)C5)n3)s2)CC1 [Example 13, tert-butyl 4-(4-(3-((2,6-difluorophenyl)sulfonamido)-2-fluorophenyl)-5-(2-((2,2-dioxido-2-thiaspiro[3.3]heptan-6-yl)amino)pyrimidin-4-yl)thiazol-2-yl)-4-methylpiperidine-1-carboxylate]
18.1 µM | CC1(c2nc(-c3cccc(NS(=O)(=O)c4c(F)cccc4F)c3F)c(-c3ccnc(NC4CC5(C4)CS(=O)(=O)C5)n3)s2)CCNCC1 [Example 14, N-(3-(5-(2-((2,2-dioxido-2-thiaspiro[3.3]heptan-6-yl)amino)pyrimidin-4-yl)-2-(4-methylpiperidin-4-yl)thiazol-4-yl)-2-fluorophenyl)-2,6-difluorobenzenesulfonamide]
3.2 µM | CN1CCC(C)(c2nc(-c3cccc(NS(=O)(=O)c4c(F)cccc4F)c3F)c(-c3ccnc(NC4CC5(C4)CS(=O)(=O)C5)n3)s2)CC1 [Example 15, N-(3-(2-(1,4-dimethylpiperidin-4-yl)-5-(2-((2,2-dioxido-2-thiaspiro[3.3]heptan-6-yl)amino)pyrimidin-4-yl)thiazol-4-yl)-2-fluorophenyl)-2,6-difluorobenzenesulfonamide]
0.13 µM | O=S1(=O)CC2(CC(Nc3nccc(-c4sc(C5(C(F)F)CC5)nc4-c4cccc(NS(=O)(=O)c5c(F)cccc5F)c4F)n3)C2)C1 [Example 16, N-(3-(2-(1-(difluoromethyl)cyclopropyl)-5-(2-((2,2-dioxido-2-thiaspiro[3.3]heptan-6-yl)amino)pyrimidin-4-yl)thiazol-4-yl)-2-fluorophenyl)-2,6-difluorobenzenesulfonamide]
0.48 µM | O=C1CC2CCC(C1)N2c1nc(-c2cccc(NS(=O)(=O)c3c(F)cccc3F)c2F)c(-c2ccnc(NC3CC4(C3)CS(=O)(=O)C4)n2)s1 [Example 17, N-(3-(5-(2-((2,2-dioxido-2-thiaspiro[3.3]heptan-6-yl)amino)pyrimidin-4-yl)-2-(3-oxo-8-azabicyclo[3.2.1]octan-8-yl)thiazol-4-yl)-2-fluorophenyl)-2,6-difluorobenzenesulfonamide]
0.079 µM | O=S1(=O)CC2(CC(Nc3nccc(-c4sc(N5CC6CCC5CC6)nc4-c4cccc(NS(=O)(=O)c5c(F)cccc5F)c4F)n3)C2)C1 [Example 18, N-(3-(2-(2-azabicyclo[2.2.2]octan-2-yl)-5-(2-((2,2-dioxido-2-thiaspiro[3.3]heptan-6-yl)amino)pyrimidin-4-yl)thiazol-4-yl)-2-fluorophenyl)-2,6-difluorobenzenesulfonamide]
0.19 µM | O=S1(=O)CC2(CC(Nc3nccc(-c4sc(N5C6CCCC5CC6)nc4-c4cccc(NS(=O)(=O)c5c(F)cccc5F)c4F)n3)C2)C1 [Example 19, N-(3-(2-(8-azabicyclo[3.2.1]octan-8-yl)-5-(2-((2,2-dioxido-2-thiaspiro[3.3]heptan-6-yl)amino)pyrimidin-4-yl)thiazol-4-yl)-2-fluorophenyl)-2,6-difluorobenzenesulfonamide]
0.24 µM | O=S1(=O)CC2(CC(Nc3nccc(-c4sc(C56CCC(C5)C6)nc4-c4cccc(NS(=O)(=O)c5c(F)cccc5F)c4F)n3)C2)C1 [Example 20]
0.24 µM | O=S1(=O)CC2(CC(Nc3nccc(-c4sc(N5CC6CCC(CC6)C5)nc4-c4cccc(NS(=O)(=O)c5c(F)cccc5F)c4F)n3)C2)C1 [Example 21]
0.44 µM | CN1CC2CC(C1)N2c1nc(-c2cccc(NS(=O)(=O)c3c(F)cccc3F)c2F)c(-c2ccnc(NC3CC4(C3)CS(=O)(=O)C4)n2)s1 [Example 22, N-(3-(5-(2-((2,2-dioxido-2-thiaspiro[3.3]heptan-6-yl)amino)pyrimidin-4-yl)-2-(3-methyl-3,6-diazabicyclo[3.1.1]heptan-6-yl)thiazol-4-yl)-2-fluorophenyl)-2,6-difluorobenzenesulfonamide]
1.74 µM | CN1C2CCC1CN(c1nc(-c3cccc(NS(=O)(=O)c4c(F)cccc4F)c3F)c(-c3ccnc(NC4CC5(C4)CS(=O)(=O)C5)n3)s1)C2 [Example 23, N-(3-(5-(2-((2,2-dioxido-2-thiaspiro[3.3]heptan-6-yl)amino)pyrimidin-4-yl)-2-(8-methyl-3,8-diazabicyclo[3.2.1]octan-3-yl)thiazol-4-yl)-2-fluorophenyl)-2,6-difluorobenzenesulfonamide]
1.46 µM | CC1(C)CCCN1c1nc(-c2cccc(NS(=O)(=O)c3c(F)cccc3F)c2F)c(-c2ccnc(NC3CC4(C3)CS(=O)(=O)C4)n2)s1 [Example 24, N-(3-(2-(2,2-dimethylpyrrolidin-1-yl)-5-(2-((2,2-dioxido-2-thiaspiro[3.3]heptan-6-yl)amino)pyrimidin-4-yl)thiazol-4-yl)-2-fluorophenyl)-2,6-difluorobenzenesulfonamide]

SMILES | IC50
CS(=O)(=O)C1CCC(Nc2nccc(-c3sc(C45CC(Cl)(C4)C5)nc3-c3cccc(NS(=O)(=O)c4c(F)cccc4C(F)(F)F)c3F)n2)CC1 (stereo not drawn) [Example 8, N-(3-(2-(3-chlorobicyclo[1.1.1]pentan-1-yl)-5-(2-(((1s,4s)-4-(methylsulfonyl)cyclohexyl)amino)pyrimidin-4-yl)thiazol-4-yl)-2-fluorophenyl)-2-fluoro-6-(trifluoromethyl)benzenesulfonamide] | 0.24 µM

Source: patent US12331026B2 (NiKang Therapeutics, Inc., priority 2022, dated 2025)
